Literature values as cited in US7851464B2, “Spirolactam aryl CGRP receptor antagonists” (Merck Sharp & Dohme Corp., priority 2005, dated 2010).
Ends that are not written are not given here.

Tests used:
marmoset = conditions: Doods et al. 2000
rats = conditions: prior administration, Williamson et al. 1997
rat = conditions: Escott et al. 1995

Molecule	effect on increase of facial blood flow (marmoset)	effect on increase of middle meningeal artery diameter (rats)	effect on increase of facial blood flow (rat)
NCCCC[C@H](NC(=O)[C@@H](Cc1cc(Br)c(O)c(Br)c1)NC(=O)N1CCC(N2Cc3ccccc3NC2=O)CC1)C(=O)N1CCN(c2ccncc2)CC1 [BIBN4096BS]	blocked	–	–
CGRP(8-37): a peptide CGRP antagonist; fragment of CGRP that lacks seven N-terminal amino acid residues (VTHRLAGLLSRSGGVVKNNFVPTNVGSKAF; ends and bridges not checked; UniProt P06881 90-119, looked up, fragment)	–	blocked	inhibited
